Laboratory results as given in PubChem BioAssay (NCI).
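Exposure lasted 48 hours, with cells grown in 96-well plates and compounds tested at five concentrations. TGI denotes the concentration required for complete inhibition of growth.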

Assays:
Test in all cases: NCI-60 cell line screen, 48 h
NCI/ADR-RES ovarian = test system: NCI/ADR-RES ovarian
HL-60(TB) leukemia = test system: HL-60(TB) leukemia
RXF 393 renal = test system: RXF 393 renal
HOP-62 NSCLC = test system: HOP-62 NSCLC
IGROV1 ovarian = test system: IGROV1 ovarian
A498 renal = test system: A498 renal
UO-31 renal = test system: UO-31 renal
COLO 205 colon = test system: COLO 205 colon
SNB-19 CNS = test system: SNB-19 CNS
OVCAR-4 ovarian = test system: OVCAR-4 ovarian
PC-3 prostate = test system: PC-3 prostate
BT-549 breast = test system: BT-549 breast
T-47D breast = test system: T-47D breast
SK-MEL-2 melanoma = test system: SK-MEL-2 melanoma
UACC-257 melanoma = test system: UACC-257 melanoma
HT29 colon = test system: HT29 colon
CCRF-CEM leukemia = test system: CCRF-CEM leukemia
MDA-MB-435 = test system: MDA-MB-435
TK-10 renal = test system: TK-10 renal
M14 melanoma = test system: M14 melanoma
SN12C renal = test system: SN12C renal
NCI-H23 lung = test system: NCI-H23 lung
U251 CNS = test system: U251 CNS
OVCAR-5 ovarian = test system: OVCAR-5 ovarian
MDA-MB-231 breast = test system: MDA-MB-231 breast
HS 578T breast = test system: HS 578T breast
RPMI-8226 leukemia = test system: RPMI-8226 leukemia
SW-620 colon = test system: SW-620 colon
MDA-N = test system: MDA-N
EKVX NSCLC = test system: EKVX NSCLC
SNB-75 CNS = test system: SNB-75 CNS
OVCAR-3 ovarian = test system: OVCAR-3 ovarian
MCF7 breast = test system: MCF7 breast
MALME-3M melanoma = test system: MALME-3M melanoma
786-0 renal = test system: 786-0 renal
K-562 leukemia = test system: K-562 leukemia
ACHN renal = test system: ACHN renal
NCI-H522 lung = test system: NCI-H522 lung
NCI-H226 lung = test system: NCI-H226 lung
SR leukemia = test system: SR leukemia
HCT-116 colon = test system: HCT-116 colon
A549 NSCLC = test system: A549 NSCLC
SF-268 CNS = test system: SF-268 CNS
SK-MEL-28 melanoma = test system: SK-MEL-28 melanoma
UACC-62 melanoma = test system: UACC-62 melanoma
KM12 colon = test system: KM12 colon
LOX IMVI melanoma = test system: LOX IMVI melanoma
HCC-2998 colon = test system: HCC-2998 colon
OVCAR-8 ovarian = test system: OVCAR-8 ovarian
SK-OV-3 ovarian = test system: SK-OV-3 ovarian
SF-295 CNS = test system: SF-295 CNS
DU-145 prostate = test system: DU-145 prostate
CAKI-1 renal = test system: CAKI-1 renal
SK-MEL-5 melanoma = test system: SK-MEL-5 melanoma
HCT-15 colon = test system: HCT-15 colon
MOLT-4 leukemia = test system: MOLT-4 leukemia
SF-539 CNS = test system: SF-539 CNS
NCI-H460 lung = test system: NCI-H460 lung
HOP-92 NSCLC = test system: HOP-92 NSCLC

Work on `CC(=O)O[C@H]1CC[C@@]2(C)[C@@H](CC[C@@H]3[C@@H]2CC(=O)[C@@]2(C)[C@H]3C[C@@H]3CC(C)=CC(=O)[C@@H]32)C1` yielded a TGI (NCI/ADR-RES ovarian) of over 100 µM, a TGI (HL-60(TB) leukemia) of 27.8 µM and a TGI (RXF 393 renal) of 86.7 µM. For the same compound, the TGI (HOP-62 NSCLC) was over 100 µM, the TGI (IGROV1 ovarian) was over 100 µM and the TGI (A498 renal) was over 100 µM. The TGI (UO-31 renal) was over 100 µM, the TGI (COLO 205 colon) was over 100 µM and the TGI (SNB-19 CNS) was over 100 µM. The TGI (OVCAR-4 ovarian) was over 100 µM, the TGI (PC-3 prostate) was over 100 µM and the TGI (BT-549 breast) was 71.2 µM. The TGI (T-47D breast) was over 100 µM, the TGI (SK-MEL-2 melanoma) was over 100 µM and the TGI (UACC-257 melanoma) was over 100 µM. For the same compound, the TGI (HT29 colon) was over 100 µM, the TGI (CCRF-CEM leukemia) was over 100 µM and the TGI (MDA-MB-435) was over 100 µM. For the same compound, the TGI (TK-10 renal) was over 100 µM, the TGI (M14 melanoma) was over 100 µM and the TGI (SN12C renal) was over 100 µM. For the same compound, the TGI (NCI-H23 lung) was over 100 µM, the TGI (U251 CNS) was over 100 µM and the TGI (OVCAR-5 ovarian) was over 100 µM. The TGI (MDA-MB-231 breast) was over 100 µM, the TGI (HS 578T breast) was 80.3 µM and the TGI (RPMI-8226 leukemia) was 45.8 µM. For the same compound, the TGI (SW-620 colon) was over 100 µM, the TGI (MDA-N) was over 100 µM and the TGI (EKVX NSCLC) was over 100 µM. For the same compound, the TGI (SNB-75 CNS) was 73.8 µM, the TGI (OVCAR-3 ovarian) was over 100 µM and the TGI (MCF7 breast) was over 100 µM. For the same compound, the TGI (MALME-3M melanoma) was over 100 µM, the TGI (786-0 renal) was over 100 µM and the TGI (K-562 leukemia) was over 100 µM. The TGI (ACHN renal) was over 100 µM, the TGI (NCI-H522 lung) was over 100 µM and the TGI (NCI-H226 lung) was over 100 µM. It also gave a TGI (SR leukemia) of over 100 µM, a TGI (HCT-116 colon) of over 100 µM and a TGI (A549 NSCLC) of over 100 µM. It also gave a TGI (SF-268 CNS) of over 100 µM, a TGI (SK-MEL-28 melanoma) of over 100 µM and a TGI (UACC-62 melanoma) of over 100 µM. It also gave a TGI (KM12 colon) of over 100 µM, a TGI (LOX IMVI melanoma) of over 100 µM and a TGI (HCC-2998 colon) of over 100 µM. For the same compound, the TGI (OVCAR-8 ovarian) was over 100 µM, the TGI (SK-OV-3 ovarian) was over 100 µM and the TGI (SF-295 CNS) was over 100 µM. It also gave a TGI (DU-145 prostate) of over 100 µM, a TGI (CAKI-1 renal) of over 100 µM and a TGI (SK-MEL-5 melanoma) of over 100 µM. The TGI (HCT-15 colon) was over 100 µM.

`C/C(=N\Nc1nc2ccccc2[nH]1)c1ccc2ccccc2n1` was tested, and the TGI (NCI/ADR-RES ovarian) was 7.63 µM, the TGI (HL-60(TB) leukemia) was 5.04 µM and the TGI (RXF 393 renal) was 13.5 µM. It also gave a TGI (MOLT-4 leukemia) of 2.64 µM, a TGI (HOP-62 NSCLC) of 8.12 µM and a TGI (IGROV1 ovarian) of 8.1 µM. For the same compound, the TGI (UO-31 renal) was 5.1 µM, the TGI (COLO 205 colon) was 16.2 µM and the TGI (SNB-19 CNS) was 15.9 µM. For the same compound, the TGI (OVCAR-4 ovarian) was 10.8 µM, the TGI (PC-3 prostate) was 5.2 µM and the TGI (BT-549 breast) was over 100 µM. It also gave a TGI (T-47D breast) of 3.74 µM, a TGI (SK-MEL-2 melanoma) of 7.23 µM and a TGI (UACC-257 melanoma) of 24.9 µM. It also gave a TGI (CCRF-CEM leukemia) of 3.87 µM, a TGI (MDA-MB-435) of 17 µM and a TGI (TK-10 renal) of 13.2 µM. It also gave a TGI (M14 melanoma) of 6.47 µM, a TGI (SN12C renal) of 7.57 µM and a TGI (NCI-H23 lung) of 16.1 µM. For the same compound, the TGI (U251 CNS) was 14.3 µM, the TGI (OVCAR-5 ovarian) was 10 µM and the TGI (MDA-MB-231 breast) was 12.5 µM. It also gave a TGI (HS 578T breast) of 35 µM, a TGI (RPMI-8226 leukemia) of 3.15 µM and a TGI (SW-620 colon) of 14.6 µM. It also gave a TGI (MDA-N) of 14.8 µM, a TGI (SF-539 CNS) of 20.1 µM and a TGI (EKVX NSCLC) of 5.97 µM. For the same compound, the TGI (OVCAR-3 ovarian) was 2.95 µM, the TGI (MCF7 breast) was 13.8 µM and the TGI (MALME-3M melanoma) was 7.85 µM. For the same compound, the TGI (786-0 renal) was 10.7 µM, the TGI (K-562 leukemia) was 6.72 µM and the TGI (ACHN renal) was 24.2 µM. The TGI (NCI-H522 lung) was 8.85 µM, the TGI (SR leukemia) was 0.448 µM and the TGI (HCT-116 colon) was 7.48 µM. For the same compound, the TGI (A549 NSCLC) was 10.2 µM, the TGI (SF-268 CNS) was 14.3 µM and the TGI (SK-MEL-28 melanoma) was 23 µM. It also gave a TGI (UACC-62 melanoma) of 9.25 µM, a TGI (KM12 colon) of 14.3 µM and a TGI (LOX IMVI melanoma) of 10.2 µM. For the same compound, the TGI (NCI-H460 lung) was 10.4 µM, the TGI (OVCAR-8 ovarian) was over 100 µM and the TGI (SK-OV-3 ovarian) was 38.4 µM. The TGI (SF-295 CNS) was 8.29 µM, the TGI (DU-145 prostate) was 5.88 µM and the TGI (CAKI-1 renal) was 1.54 µM. It also gave a TGI (SK-MEL-5 melanoma) of 4.5 µM and a TGI (HCT-15 colon) of 35.2 µM.

`CC1=NN(c2cccc(S(=O)(=O)O)c2)C2(C1)SCC(=O)N2c1nc2ccccc2s1` (stereo unspecified) was tested, and the TGI (NCI/ADR-RES ovarian) was over 100 µM, the TGI (HL-60(TB) leukemia) was over 100 µM and the TGI (RXF 393 renal) was over 100 µM. It also gave a TGI (MOLT-4 leukemia) of over 100 µM, a TGI (HOP-62 NSCLC) of over 100 µM and a TGI (IGROV1 ovarian) of over 100 µM. The TGI (A498 renal) was over 100 µM, the TGI (UO-31 renal) was over 100 µM and the TGI (COLO 205 colon) was over 100 µM. The TGI (SNB-19 CNS) was over 100 µM, the TGI (OVCAR-4 ovarian) was over 100 µM and the TGI (PC-3 prostate) was over 100 µM. The TGI (BT-549 breast) was over 100 µM, the TGI (T-47D breast) was over 100 µM and the TGI (SK-MEL-2 melanoma) was over 100 µM. It also gave a TGI (UACC-257 melanoma) of over 100 µM, a TGI (HT29 colon) of over 100 µM and a TGI (MDA-MB-435) of over 100 µM. The TGI (TK-10 renal) was over 100 µM, the TGI (M14 melanoma) was over 100 µM and the TGI (SN12C renal) was over 100 µM. For the same compound, the TGI (NCI-H23 lung) was over 100 µM, the TGI (U251 CNS) was over 100 µM and the TGI (OVCAR-5 ovarian) was over 100 µM. The TGI (MDA-MB-231 breast) was over 100 µM, the TGI (HS 578T breast) was over 100 µM and the TGI (RPMI-8226 leukemia) was over 100 µM. It also gave a TGI (SW-620 colon) of over 100 µM, a TGI (MDA-N) of over 100 µM and a TGI (SF-539 CNS) of over 100 µM. It also gave a TGI (EKVX NSCLC) of over 100 µM, a TGI (SNB-75 CNS) of over 100 µM and a TGI (OVCAR-3 ovarian) of over 100 µM. The TGI (MCF7 breast) was over 100 µM, the TGI (MALME-3M melanoma) was over 100 µM and the TGI (786-0 renal) was over 100 µM. The TGI (K-562 leukemia) was over 100 µM, the TGI (ACHN renal) was over 100 µM and the TGI (NCI-H522 lung) was over 100 µM. It also gave a TGI (NCI-H226 lung) of over 100 µM, a TGI (SR leukemia) of over 100 µM and a TGI (HCT-116 colon) of over 100 µM. It also gave a TGI (A549 NSCLC) of over 100 µM, a TGI (SF-268 CNS) of over 100 µM and a TGI (SK-MEL-28 melanoma) of over 100 µM. For the same compound, the TGI (UACC-62 melanoma) was over 100 µM, the TGI (KM12 colon) was over 100 µM and the TGI (HOP-92 NSCLC) was over 100 µM. It also gave a TGI (LOX IMVI melanoma) of over 100 µM, a TGI (HCC-2998 colon) of over 100 µM and a TGI (NCI-H460 lung) of over 100 µM. It also gave a TGI (OVCAR-8 ovarian) of over 100 µM, a TGI (SK-OV-3 ovarian) of over 100 µM and a TGI (SF-295 CNS) of over 100 µM. It also gave a TGI (DU-145 prostate) of over 100 µM, a TGI (CAKI-1 renal) of over 100 µM and a TGI (SK-MEL-5 melanoma) of over 100 µM. It also gave a TGI (HCT-15 colon) of over 100 µM.
